Experiments:
Assay in all cases: CTG-3D luminescence at 96 h relative to day-0 seeding control (ratio to day 0); higher = more growth / less cytotoxicity; PDxO 3D drug screen (set 2), 96 h, CTG-3D normalised to day-0 seeding control.
HCI-003.E2 = test system: HCI-003.E2 (organoid from an ER-positive breast cancer xenograft)
HCI-027 = test system: HCI-027 (organoid from a triple-negative breast cancer xenograft)
HCI-005.E2 = test system: HCI-005.E2 (organoid from a breast cancer xenograft with a HER2-positive history)
HCI-017.E2 = test system: HCI-017.E2 (organoid from an ER-positive breast cancer xenograft)
HCI-016 = test system: HCI-016 (organoid from a triple-negative breast cancer xenograft)
HCI-010 = test system: HCI-010 (organoid from a breast cancer xenograft)

C[C@@H](Nc1cc(F)cc(F)c1)c1cc(C(=O)N(C)C)cc2c(=O)cc(N3CCOCC3)oc12 [AZD-8186]
CTG-3D luminescence at 96 h
Settings	12.5 pM	0.00025 µM	0.005 µM	0.1 µM	1 µM	10 µM	100 µM	625 fM
HCI-003.E2	2.53	2.56	2.18	2.38	2.13	1.28	0.0452	2.58
HCI-005.E2	1.82	2.18	2.26	2.54	2.24	1.51	0.592	1.97
HCI-017.E2	2.08	2.64	2.27	2.48	1.89	1.096	0.252	2.74

CTG-3D luminescence at 96 h
Settings	12.5 pM	0.00025 µM	0.005 µM	0.1 µM	1 µM	10 µM	100 µM	625 fM
HCI-010, days in culture: 79	1.88	1.85	1.94	1.98	1.58	1.1	0.138	2.14
HCI-010, days in culture: 86	2.26	2.36	2.34	2.1	1.99	1.67	0.321	2.16
HCI-010, days in culture: 102	1.18	0.973	1.18	1.19	1.19	0.856	0.0314	1.26
HCI-010, days in culture: 164	1.6	1.49	1.64	1.37	1.4	1.02	0.0763	1.52
HCI-016, days in culture: 305	3.52	4.53	2.53	4.16	1.53	1.97	1.51	4.97
HCI-016, days in culture: 327	1.3	1.35	1.53	2.67	0.902	1.31	0.672	1.61
HCI-016, days in culture: 341	2.01	1.59	2.07	1.7	1.81	2.04	0.88	2.55
HCI-016, days in culture: 397	2.34	2.9	1.49	1.76	2.14	1.87	0.71	2.46
HCI-017.E2, days in culture: 85	1.85	1.86	1.62	2.05	1.45	1.14	0.197	2.07
HCI-027, days in culture: 145	1.31	2.65	1.81	1.94	0.882	1.12	0.387	1.74
HCI-027, days in culture: 158	0.987	2.74	2.32	1.39	1.24	1.87	0.581	4.36
HCI-027, days in culture: 164	1.52	0.955	2.29	2.94	1.28	1.36	0.618	1.46
HCI-027, days in culture: 176	2.9	2.55	1.1	1.9	1.15	0.842	0.201	1.89
HCI-027, days in culture: 186	1.9	2.1	2.54	1.7	0.519	1.46	0.286	2.6

From the supplement of paper PMC8882468
